From patent US20200236940A1, “2-(HET)ARYL-SUBSTITUTED FUSED HETEROCYCLE DERIVATIVES AS PESTICIDES” (Bayer Aktiengesellschaft, priority 2017, published 2020) come the findings set out here.

Common to all, as to type: in vivo
Experiment [1] deals with Myzus persicae. The experiment can be described thus: Myzus persicae spray test (MYZUPE), Chinese cabbage leaf discs. The conditions noted are these: foliar, 120 h; for pest or weed control at 20 g/ha: application rate 20 g/ha; for pest or weed control at 20 g/ha / pest or weed control at 100 g/ha: after 5 days, read-out: efficacy; for pest or weed control at 100 g/ha: application rate 100 g/ha. As to the method:
Myzus persicae—Spray Test [table] To produce a suitable active ingredient formulation, 1 part by weight of active ingredient is dissolved with the specified parts by weight of solvent and made up to the desired concentration with water containing an emulsifier concentration of 1000 ppm. To produce further test concentrations, the formulation is diluted with emulsifier-containing water. Discs of Chinese cabbage leaves (Brassica pekinensis) infested by all stages of the green peach aphid (Myzus persicae) are sprayed with an active ingredient formulation of the desired concentration. After 5 days, the efficacy in % is determined. 100% means that all the aphids have been killed; 0% means that no aphids have been killed. Myzus persicae—Spray Test (MYZUPE) [table] To produce a suitable active ingredient formulation, 1 part by weight of active ingredient is dissolved with the specified parts by weight of solvent and made up to the desired concentration with water containing an emulsifier concentration of 1000 ppm. To produce further test concentrations, the formulation is diluted with emulsifier-containing water. Discs of Chinese cabbage leaves (Brassica pekinensis) infested by all stages of the green peach aphid (Myzus persicae) are sprayed with an active ingredient formulation of the desired concentration. After the desired period of time, the efficacy in % is determined. 100% means that all the aphids have been killed; 0% means that no aphids have been killed.

The test system of experiment [2] is Myzus persicae. Put plainly: Myzus persicae oral test. The note with it: 120 h, application rate 4 ppm, after 5 days, read-out: efficacy. On the procedure: Myzus persicae—Oral Test Solvent: 100 parts by weight of acetone To produce a suitable active ingredient formulation, 1 part by weight of active ingredient is dissolved with the stated parts by weight of solvent and made up to the desired concentration with water. 50 μl of the active ingredient formulation are transferred into microtitre plates and made up to a final volume of 200 μl with 150 μl of IPL41 insect medium (33%+15% sugar). Subsequently, the plates are sealed with parafilm, which a mixed population of green peach aphids (Myzus persicae) within a second microtitre plate is able to puncture and imbibe the solution. After 5 days, the efficacy in % is determined. 100% means that all the aphids have been killed; 0% means that no aphids have been killed.

In the next experiment the test system is Phaedon cochleariae. Put plainly: Phaedon cochleariae spray test, Chinese cabbage leaf discs. The conditions noted are these: foliar, 168 h, application rate 100 g/ha, after 7 days, larvae, read-out: efficacy. As to the method: Phaedon cochleariae—Spray Test
To produce a suitable active ingredient formulation, 1 part by weight of active ingredient is dissolved with the specified parts by weight of solvent and made up to the desired concentration with water containing an emulsifier concentration of 1000 ppm. To produce further test concentrations, the formulation is diluted with emulsifier-containing water.
After 7 days, the efficacy in % is determined. 100% means that all the beetle larvae have been killed; 0% means that no beetle larvae have been killed.

Experiment [3] concerns Spodoptera frugiperda. Put plainly: Spodoptera frugiperda spray test, maize leaf discs. The conditions noted are these: for Emax at 100 g/ha: Spodoptera frugiperda, foliar, 168 h, SPODFR, 100 g of ai/ha, 7 dat, read-out: % efficacy; for efficacy: application rate 100 g/ha, after 7 days, caterpillars. As to the method: Spodoptera frugiperda—Spray Test [table] To produce a suitable active ingredient formulation, 1 part by weight of active ingredient is dissolved with the specified parts by weight of solvent and made up to the desired concentration with water containing an emulsifier concentration of 1000 ppm. To produce further test concentrations, the formulation is diluted with emulsifier-containing water. Leaf discs of maize (Zea mays) are sprayed with an active ingredient formulation of the desired concentration and, after drying, populated with caterpillars of the armyworm (Spodoptera frugiperda). After 7 days, the efficacy in % is determined. 100% means that all the caterpillars have been killed; 0% means that no caterpillar has been killed.

In another experiment the test system is Ctenocephalides felis. The experiment can be described thus: Ctenocephalides felis oral test. The conditions noted are these: application rate 100 ppm, after 2 days. On the procedure:
Ctenocephalides felis—Oral Test Solvent: dimethyl sulfoxide To produce a suitable active ingredient formulation, 10 mg of active ingredient are mixed with 0.5 ml of dimethyl sulfoxide. Dilution with citrated cattle blood gives the desired concentration. About 20 unfed adult cat fleas (Ctenocephalides felis) are placed into a chamber which is closed at the top and bottom with gauze. A metal cylinder whose bottom end is closed with parafilm is placed onto the chamber. The cylinder contains the blood/active ingredient formulation, which can be imbibed by the fleas through the parafilm membrane. After 2 days, the kill in % is determined. 100% means that all of the fleas have been killed; 0% means that none of the fleas have been killed.

For a further experiment, the system named is Lucilia cuprina. Put plainly: Lucilia cuprina test. The conditions noted are these: after 2 days, L1 larvae. On the procedure: Lucilia cuprina Test Solvent: dimethyl sulfoxide To produce a suitable active ingredient formulation, 10 mg of active ingredient are mixed with 0.5 ml of dimethyl sulfoxide, and the concentrate is diluted with water to the desired concentration. About 20 L1 larvae of the Australian sheep blowfly (Lucilia cuprina) are transferred into a test vessel containing minced horsemeat and the active ingredient formulation of the desired concentration. After 2 days, the kill in % is determined. 100% means that all the larvae have been killed; 0% means that no larvae have been killed.

Experiment [4] deals with Myzus persicae. Put plainly: Myzus persicae spray test, bell pepper plants. The note with it: application rate 20 ppm, after 6 days. As to the method:
Myzus persicae—Spray Test Solvent: 14 parts by weight of dimethylformamide Emulsifier: alkylaryl polyglycol ether To produce a suitable active ingredient formulation, 1 part by weight of active ingredient is dissolved with the specified parts by weight of solvent and made up to the desired concentration with water containing an emulsifier concentration of 1000 ppm. To produce further test concentrations, the formulation is diluted with emulsifier-containing water. If the addition of ammonium salts or/and penetrants is required, these are each added in a concentration of 1000 ppm to the formulation solution. Bell pepper plants (Capsicum annuum) severely infested with the green peach aphid (Myzus persicae) are treated by spraying with the active ingredient formulation in the desired concentration. After 6 days, the kill in % is determined. 100% means that all of the aphids have been killed; 0% means that none of the aphids have been killed.

The test system of another experiment is Nezara viridula. Put plainly: Nezara viridula spray test. The note with it: 96 h, NEZAVI, 500 g of ai/ha, 4 dat, read-out: % efficacy. As to the method: Nezara viridula—Spray Test [table] To produce a suitable active ingredient formulation, 1 part by weight of active ingredient is dissolved with the specified parts by weight of solvent and made up to the desired concentration with water containing an emulsifier concentration of 1000 ppm. To produce further test concentrations, the formulation is diluted with emulsifier-containing water. If the addition of ammonium salts or/and penetrants is required, these are each added in a concentration of 1000 ppm to the formulation solution. Barley plants (Hordeum vulgare) infected with larvae of the Southern green shield bug (Nezara viridula) are sprayed with an active ingredient formulation of the desired concentration. After the desired period of time, the efficacy in % is determined. 100% means that all of the shield bugs have been killed; 0% means that none of the shield bugs have been killed.

The test system of experiment [5] is Spodoptera frugiperda. The experiment can be described thus: Spodoptera frugiperda spray test (SPODFR S), cotton leaves. The note with it: 168 h, 7 dat, read-out: % efficacy. On the procedure:
Spodoptera frugiperda—Spray Test (SPODFR S) Solvent: 14 parts by weight of dimethylformamide Emulsifier: alkylaryl polyglycol ether To produce a suitable active ingredient formulation, 1 part by weight of active ingredient is dissolved with the specified parts by weight of solvent and made up to the desired concentration with water containing an emulsifier concentration of 1000 ppm. To produce further test concentrations, the formulation is diluted with emulsifier-containing water. If the addition of ammonium salts or/and penetrants is required, these are each added in a concentration of 1000 ppm to the formulation solution. Cotton leaves (Gossypium hirsutum) are sprayed with an active ingredient formulation of the desired concentration and populated with caterpillars of the armyworm (Spodoptera frugiperda). After the desired time, the kill in % is determined. 100% means that all caterpillars have been killed; 0% means that none of the caterpillars have been killed.

With `CCS(=O)(=O)c1ccc(NC(=O)NC)nc1-c1nc2cc(C(F)(F)F)nc(C)c2n1C` [Example I-002], in the experiment with Myzus persicae [1], the pest or weed control at 20 g/ha is 90%. Also, the pest or weed control at 4 ppm in the experiment on Myzus persicae [2] was 100%.

Take `CCS(=O)(=O)c1ccc(-n2cc(Cl)cn2)nc1-c1nc2cc(C(F)(F)F)nc(C)c2n1C` [Example I-004]: the pest or weed control at 4 ppm with Myzus persicae [2] was determined as 100%. In addition, the pest or weed control at 100 g/ha in the experiment with Phaedon cochleariae came out at 100%.

`CCS(=O)(=O)c1ccc(-n2cncn2)nc1-c1nc2cc(C(F)(F)F)nc(Cl)c2n1C` [Example I-005]: in the experiment with Myzus persicae [1], the pest or weed control at 20 g/ha was found to be 100% and the pest or weed control at 100 g/ha turned out to be 100%. Also, in the experiment on Myzus persicae [2], the pest or weed control at 4 ppm was 100%. For the same compound, in the experiment with Spodoptera frugiperda [3], the Emax at 100 g/ha came out at 100% and the efficacy is given as 100%.

Regarding `CCS(=O)(=O)c1ccc(NC(=O)NC)nc1-c1nc2cc(C(F)(F)F)nc(Cl)c2n1C` [Example I-006], in the experiment on Myzus persicae [1], the pest or weed control at 20 g/ha is 90% and the pest or weed control at 100 g/ha was found to be 90%. Besides, in the experiment on Myzus persicae [2], the pest or weed control at 4 ppm is 100%.

For `CCS(=O)(=O)c1ccc(N)nc1-c1nc2cc(C(F)(F)F)nc(C#N)c2n1C` [Example I-007], the pest or weed control at 20 g/ha in the experiment on Myzus persicae [1] is 90%. In the experiment with Myzus persicae [2], the pest or weed control at 4 ppm was 100%. Also, the pest or weed control at 100 g/ha in the experiment with Phaedon cochleariae is 100%.

As for `CCS(=O)(=O)c1ccc(-n2cc(C#N)cn2)nc1-c1nc2cc(C(F)(F)F)nc(C)c2n1C` [Example I-008], in the experiment with Myzus persicae [2], the pest or weed control at 4 ppm stood at 100%. The “efficacy (kill)” value with Ctenocephalides felis and in the experiment with Lucilia cuprina (application rate 100 ppm) was 100% throughout. Besides, the pest or weed control at 100 g/ha with Phaedon cochleariae worked out at 100%.

For the compound `CCS(=O)(=O)c1ccc(-n2cc(Cl)cn2)nc1-c1nc2cc(C(F)(F)F)nc(C#N)c2n1C` [Example I-009, 2-[6-(4-chloro-1H-pyrazol-1-yl)-3-(ethylsulfonyl)pyridin-2-yl]-3-methyl-6-(trifluoromethyl)-3H-imidazo[4,5-c]pyridine-4-carbonitrile], in the experiment on Myzus persicae [2], the pest or weed control at 4 ppm came to 90%. The “efficacy (kill)” value in the experiment on Lucilia cuprina (application rate 20 ppm) and in the experiment on Lucilia cuprina (application rate 100 ppm) was 100% each time.

With `CCS(=O)(=O)c1ccc(NC(=O)NC)nc1-c1nc2cc(C(F)(F)F)nc(C#N)c2n1C` [Example I-010], the pest or weed control at 4 ppm in the experiment with Myzus persicae [2] was determined as 100%. For the same compound, the “efficacy (kill)” value amounted to 100% in the experiment on Ctenocephalides felis and 99% in the experiment on Myzus persicae [4].

Turning to `CCS(=O)(=O)c1ccc(-n2ncn(-c3ccc(Cl)cc3)c2=O)nc1-c1nc2cc(C(F)(F)F)nc(C#N)c2n1C` [Example I-011, 2-{6-[4-(4-chlorophenyl)-5-oxo-4,5-dihydro-1H-1,2,4-triazol-1-yl]-3-(ethylsulfonyl)pyridin-2-yl}-3-methyl-6-(trifluoromethyl)-3H-imidazo[4,5-c]pyridine-4-carbonitrile], the Emax at 500 g/ha in the experiment on Nezara viridula was determined as 90%. Moreover, the pest or weed control at 4 ppm in the experiment with Myzus persicae [2] was 100%. For the same compound, the “efficacy (kill)” value in the experiment with Ctenocephalides felis, with Lucilia cuprina (application rate 20 ppm) and in the experiment with Lucilia cuprina (application rate 100 ppm) was 100% each time. In addition, the pest or weed control at 100 g/ha in the experiment on Phaedon cochleariae came out at 100%.

Regarding `CCS(=O)(=O)c1ccc(-n2cncn2)nc1-c1nc2cc(C(F)(F)F)nc(C#N)c2n1C` [Example I-012], the pest or weed control at 4 ppm in the experiment on Myzus persicae [2] was 100%. For the same compound, the “efficacy (kill)” value in the experiment on Myzus persicae [4] is 100%. Further, the pest or weed control at 100 g/ha in the experiment on Phaedon cochleariae came to 83%.

On to `CCS(=O)(=O)c1ccc(C(=O)NC)nc1-c1nc2cc(C(F)(F)F)nc(C)c2n1C` [Example I-014], for which the pest or weed control at 20 g/ha with Myzus persicae [1] was 90%. Besides, the pest or weed control at 4 ppm with Myzus persicae [2] amounted to 100%.

For `CCS(=O)(=O)c1ccc(C(=O)N(C)C)nc1-c1nc2cc(C(F)(F)F)nc(C)c2n1C` [Example I-015], in the experiment with Myzus persicae [1], the pest or weed control at 20 g/ha was 90% and the pest or weed control at 100 g/ha was found to be 90%. For the same compound, the pest or weed control at 4 ppm with Myzus persicae [2] was 100%.

Take `CCc1nc(C(F)(F)F)cc2nc(-c3nc(-n4ncn(-c5ccc(Cl)cc5)c4=O)ccc3S(=O)(=O)CC)n(C)c12` [Example I-016]: in the experiment on Nezara viridula, the Emax at 500 g/ha came to 50%. The pest or weed control at 4 ppm in the experiment on Myzus persicae [2] turned out to be 100%. Further, the Emax at 4 ppm with Spodoptera frugiperda [5] amounted to 100%. Further, in the experiment with Spodoptera frugiperda [3], the efficacy stood at 100%. The pest or weed control at 100 g/ha in the experiment on Phaedon cochleariae came to 100%.

As to `C=Cc1nc(C(F)(F)F)cc2nc(-c3nc(-n4ncn(-c5ccc(Cl)cc5)c4=O)ccc3S(=O)(=O)CC)n(C)c12` [Example I-017], in the experiment with Myzus persicae [1], the pest or weed control at 20 g/ha came out at 90%. Further, the pest or weed control at 4 ppm in the experiment on Myzus persicae [2] amounted to 100%. In addition, the efficacy in the experiment with Spodoptera frugiperda [3] came out at 100%.

Consider `CCS(=O)(=O)c1ccc(-n2cncn2)nc1-c1nc2cc(C(F)(F)F)ncc2n1C` [Prior art WO 2016/124563 (Ex. 32), reference compound], for which, in the experiment on Spodoptera frugiperda [3], the Emax at 100 g/ha was 50%.

Regarding `CCS(=O)(=O)c1ccc(-n2ccnn2)nc1-c1nc2cc(C(F)(F)F)ncc2n1C` [Prior art according to WO 2016/124563, reference compound], the Emax at 4 g/ha in the experiment with Myzus persicae [1] (MYZUPE, 4 g of ai/ha, 5 dat, read-out: % efficacy) is 0%.
